Columns and labels:
LTB4-LIR polypeptide = assay: inhibition by eicosanoids of [3H]LTB4 binding to LTB4-LIR polypeptide; parameters: species or system Ixodes ricinus; details: for inhibition of 1 nM [3H]LTB4 binding to LTB4-LIR polypeptide: eicosanoid at a concentration of 10 μM, FIG. 4
Description: (§1) The polypeptide according to the invention was therefore tested for its ability to bind specifically leukotriene B4. The affinity-purified LTB4-LIR polypeptide was tested in binding assays according to a previously described method (Warlow, R. S., and Bernard, C. C. A. (1987). Solubilization and characterization of moderate and high affinity histamine binding sites on human blood mononuclear cells. Mol. Immunol. 24, 27-37).
(§2) The inhibition by various eicosanoids of [3H]LTB4 binding to LTB4-LIR polypeptide was also examined. […] Next, various concentrations of LTA4, LTB4, LTC4, LTD4, HETE, HPETE, and LXA4 was tested in the competition with [3H]LTB4 binding to LTB4-LIR polypeptide.

[1] = saturation binding of [3H]LTB4 to affinity-purified LTB4-LIR polypeptide
Description: as §1, §2

neutrophils = assay: transendothelial migration of neutrophils stimulated by LTB4 through Ea.hy926 endothelial cell layer; assay type: cell-based, human; details: 2 hours at 37° C.; neutrophils from three volunteers, in triplicate; FIG. 6
Description: The principal LTB4 function is the chemo-attraction of neutrophils to the sub-endothelial spaces of an inflammation site. One step of this process is the diapedesis of the neutrophils through the endothelial cells layer. The chemo-attractant effect of LTB4-LIR6 was tested by using a model of transendothelial migration of neutrophils.
Ea.hy926 cells, an endothelial cell line derived from the human umbilical vein, were used. These cells closely resemble HUVEC and maintain several characteristics of differentiated endothelium. The cells were allowed to reach confluence in chamber containing DMEM (Cambrex, Vervier, Belgium), supplemented with 10% Fetal Calf Serum, 2 mM L-Glutamine, 100 U/ml penicillin, 100 μg/ml streptomycin and HAT ([…], 0.4 μM aminopterin, 16 μM thymidine). […]
In the transendothelial assay, the protocol described by Nohgawa et al. was used (Nohgawa M., Sasada M., Maeda A., Asagoe K., Harakawa N., Takano K., Yamamoto K., Okuma M. Leukotriene B4-activated human endothelial cells promote transendothelial neutrophil migration. J Leuc. Biol, 1997 (62): 203-209). […] After 2 hours at 37° C., the upper chambers were removed and cells in lower chambers were counted. […]

For `CCCCC/C=C\C[C@@H](O)/C=C/C=C\C/C=C\CCCC(=O)O` [12(R)-HETE], the “inhibition of 1 nM [3H]LTB4 binding to LTB4-LIR polypeptide” value (shortened to “inhibition of 1 nM [3H]LTB4 binding”) (LTB4-LIR polypeptide) was “significant competitions”.

With `CCCCC/C=C\C[C@@H](O)/C=C/C=C/C=C\[C@@H](O)CCCC(=O)O` [LTB4, leukotriene B4] the “inhibition of 1 nM [3H]LTB4 binding” value (LTB4-LIR polypeptide) was “significant competitions” and the “competition with [3H]LTB4 binding to LTB4-LIR polypeptide at various concentrations” value (LTB4-LIR polypeptide; various concentrations, FIG. 5) was “dose-dependent inhibition”.

For `CCCCC/C=C\C\C=C/C=C/C=C/[C@@H](SC[C@H](N)C(=O)NCC(=O)O)[C@@H](O)CCCC(=O)O` [LTD4], the “inhibition of 1 nM [3H]LTB4 binding” value (LTB4-LIR polypeptide) was “significant competitions”.

With `CCCCC/C=C\C\C=C/C=C/C=C/[C@@H](SC[C@H](N)C(=O)O)[C@@H](O)CCCC(=O)O` [LTE4] the “inhibition of 1 nM [3H]LTB4 binding” value (LTB4-LIR polypeptide) was “significant competitions”.

B1: LTB4-LIR polypeptide: Leukotriene B4 binding Lipocalin from Ixodes ricinus, amino acid sequence SEQ ID NO: 2, expressed with V5-6×His tag in a baculovirus system (protein, listed as Ixodes ricinus)
chain: MLRIAVVAALCCFGTGTVSRFQQNATERHYQELNSNLSKYQDAWKSNTENAEYVLAYRTFQDIERTRIRRCVSATLRYKNKKNRTTVHRLRYYNTRDRKWEGHSVLTRFNATPGYTVPNLMLMSSYHNESDEGRLYWTLYSQYGSCNIVRVERNGGCELWVRKGLQDYISSCCWFIYKSYCGNENYQIYNTTYCKRKGPE
modifications: V5-6×His tag
With B1 the Kd ([1]; FIG. 3, read-out: Kd value of specific and saturable binding for [3H]LTB4) was 0.4 nM, the “Kd lower than that for human BLT1 membrane receptor” value ([1]; compared with literature Kd of human BLT1 (Yokomizo et al. 2001)) was “about 5 fold” and the “Kd lower than that for human BLT2 membrane receptor” value ([1]; compared with literature Kd of human BLT2 (Yokomizo et al. 2001)) was “about 60 fold”. The “effect on the transendothelial migration of neutrophils stimulated by LTB4” value (neutrophils) was “significant dose-response effect”.

Source: patent publication US8324161B2, “Leukotriene B4 binding soluble lipocalin receptor from ixodes ricinus” (Universite Libre de Bruxelles, priority 2007, dated 2012)
